Experiments:
[1] = tested on: Aureobasidium pullulans IFO 4466 Acetylesterase 4466-II (Enzyme solution B); assay: Determination of Km, hydrolysis of cephalosporin C to deacetylcephalosporin C (HPLC); format: biochemical; details: 0.05M acetate buffer pH 4.0, 30° C., one hour, cephalosporin C sodium dihydrate 0.2-5%, read-out: Km (substrate cephalosporin C)
Method: (§1) (In case that the substrate is cephalosporin C)
(§2) Km values of Acetylesterase 4466-I and Acetylesterase 4466-II were determined in the following method.
(§3) To 0.05M acetate buffer solution (pH 4.0) containing cephalosporin C sodium dihydrate in a various concentration (0.2-5%)(4.5 ml), was added enzyme solution (0.5 ml).
(§4) The reaction mixture was incubated on a shaker at 30° C. for an hour. Subsequently, produced deacetyl cephalosporin C and unreacted cephalosporin C were determined by high pressure liquid chromatography. Km values of each esterase were calculated in a conventional manner.

[2] = tested on: Aureobasidium pullulans IFO 4466 Acetylesterase 4466-I (Enzyme solution A); assay: as above; format: biochemical; details: 0.05M acetate buffer pH 4.0, 30° C., one hour, cephalosporin C sodium dihydrate 0.2-5%, read-out: Km (substrate cephalosporin C)
Method: as §1, §2, §3, §4

For CC(=O)OCC1=C(C(=O)O)N2C(=O)[C@@H](NC(=O)CCC[C@@H](N)C(=O)O)[C@H]2SC1 [cephalosporin C], the Km [1] was 13.7 mM and the Km [2] was 11.5 mM.

Source: patent publication US4517299A, “Acetylesterases” (Fujisawa Pharmaceutical Co., Ltd., priority 1980, dated 1985)
